Laboratory results as given in PubChem BioAssay (NCI).
Where “and” joins values, the source holds several entries; their conditions need not be identical. Equal values may be shown once.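 Values below derive from 48-hour exposures of cells grown in 96-well plates, with endpoints linearly interpolated between the two concentrations bracketing the appropriate inhibition level. GI50 is the concentration that inhibits growth by half. TGI is the concentration that stops growth completely.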

Legend:
Assay in all cases: inhibition of tumour cell growth, NCI panel, 48 h
[1] = tested on: SF-268 CNS
[2] = tested on: NCI-H522 lung
[3] = tested on: UACC-257 melanoma
[4] = tested on: SW-620 colon
[5] = tested on: KM12 colon
[6] = tested on: HCT-116 colon
[7] = tested on: RXF 393 renal
[8] = tested on: SNB-75 CNS
[9] = tested on: A498 renal
[10] = tested on: HCC-2998 colon

## Cc1nc2sccn2c1-c1csc(Nc2cccc(Cl)c2C)n1
[1]
  GI50: 11.9 µM
  TGI: 74.4 µM
[2]
  GI50: 3.94 µM
  TGI: 26.5 µM
[3]
  GI50: 2.52 µM
  TGI: 12.5 µM
[4]
  GI50: 3.91 µM
  TGI: 24.3 µM
[5]
  GI50: 3.79 µM
  TGI: 21.8 µM
[6]
  GI50: 4.67 µM
  TGI: 20.1 µM
[7]
  GI50: 4.19 µM
  TGI: 37.6 µM
[8]
  GI50: 3.19 µM
  TGI: 28.3 µM
[9]
  GI50: 1.45 µM
  TGI: 17.5 µM
[10]
  GI50: 10.4 µM
  TGI: 40.7 µM

## COc1ccc(Cn2c3c(cc(OS(=O)(=O)C(F)(F)F)c2=O)Cc2ccccc2-3)cc1
[1]
  GI50: 8.54 µM
  TGI: 50 µM and > 100 µM
[2]
  GI50: 7.24 µM
  TGI: 50 µM and > 100 µM
[3]
  GI50: 5.14 µM
  TGI: 50 µM and > 100 µM
[4]
  GI50: 5.29 µM
  TGI: 50 µM and > 100 µM
[5]
  GI50: 41.1 µM
  TGI: 50 µM and > 100 µM
[6]
  GI50: 3.53 µM
  TGI: 50 µM and > 100 µM
[7]
  TGI: 50 µM and > 100 µM
[8]
  GI50: > 100 µM
  TGI: > 100 µM
[9]
  GI50: > 100 µM
  TGI: > 100 µM
[10]
  TGI: 50 µM

## COc1ccc(/C=C2\CCCC(C(NO)c3ccc(OC)cc3)C2=NO)cc1 (configuration not stated)
[1]
  TGI: > 100 µM
[2]
  TGI: 82 µM
[3]
  TGI: > 100 µM
[4]
  TGI: > 100 µM
[5]
  TGI: > 100 µM
[6]
  TGI: > 100 µM
[7]
  TGI: 96.7 µM
[8]
  TGI: 79.6 µM
[9]
  TGI: > 100 µM
[10]
  TGI: > 100 µM

## CCOC(=O)/C=C1\CCCC12OCCO2
[1]
  TGI: > 100 µM
[2]
  TGI: 7.38 µM
[3]
  TGI: > 100 µM
[4]
  TGI: > 100 µM
[5]
  TGI: > 100 µM
[6]
  TGI: > 100 µM
[7]
  TGI: > 100 µM
[8]
  TGI: > 100 µM
[9]
  TGI: > 100 µM
[10]
  TGI: > 100 µM

## Cc1cc(Cl)ccc1Nc1nc(C(F)(F)F)ccc1C(=O)N/N=C/c1ccc([N+](=O)[O-])cc1
[1]
  GI50: 0.86 µM
  TGI: 5.45 µM
[2]
  GI50: 1.55 µM
  TGI: > 20.5 µM
[3]
  GI50: 1.38 µM
  TGI: 5.11 µM
[4]
  GI50: 1.07 µM
[5]
  GI50: 0.838 µM
  TGI: 2.43 µM
[6]
  GI50: 1.85 µM
  TGI: > 23.9 µM
[7]
  GI50: 0.781 µM
  TGI: 3.22 µM
[8]
  GI50: 1.71 µM
  TGI: 10 µM
[9]
  GI50: 1.41 µM
  TGI: 7.1 µM
[10]
  GI50: 1.43 µM
  TGI: 4.28 µM

## C=C1C(=O)O[C@H]2[C@H]1CC/C(COC(=O)c1cc3cc(Cl)ccc3[nH]1)=C\CC[C@@]1(C)O[C@@H]21
[1]
  GI50: 1.44 µM
  TGI: 2.86 µM
[2]
  GI50: 1.59 µM
  TGI: 3.92 µM
[3]
  GI50: 1.7 µM
  TGI: 3.2 µM
[4]
  GI50: 1.4 µM
  TGI: 3.37 µM
[5]
  GI50: 2.15 µM
  TGI: 6.92 µM
[6]
  GI50: 0.707 µM
  TGI: 2.06 µM
[7]
  GI50: 1.38 µM
  TGI: 2.72 µM
[8]
  GI50: 0.576 µM
  TGI: 2.07 µM
[9]
  GI50: 2.65 µM
  TGI: 9.17 µM
[10]
  GI50: 1.4 µM
  TGI: 2.85 µM

## COC(=O)C(CC(=O)Nc1ccc(C)cc1)C(=O)C(=O)Nc1ccccc1C(C)C (configuration not stated)
[1]
  TGI: > 100 µM
[2]
  TGI: > 100 µM
[3]
  TGI: > 100 µM
[4]
  TGI: 41.7 µM
[5]
  TGI: > 100 µM
[6]
  TGI: > 100 µM
[7]
  TGI: > 100 µM
[8]
  TGI: > 100 µM
[9]
  TGI: > 100 µM
[10]
  TGI: > 100 µM

## Cc1cc2c(cc1C)N(C(=O)CCl)CCN2C(=O)CCl
[1]
  GI50: 1.82 µM
  TGI: 3.89 µM
[2]
  GI50: 0.178 µM
  TGI: 0.348 µM
[3]
  GI50: 1.3 µM
  TGI: 2.71 µM
[4]
  GI50: 0.204 µM
  TGI: 0.42 µM
[5]
  GI50: 1.72 µM
  TGI: 3.31 µM
[6]
  GI50: 0.186 µM
  TGI: 0.409 µM
[7]
  GI50: 0.237 µM
  TGI: 0.668 µM
[8]
  GI50: 1.48 µM
  TGI: 3.1 µM
[9]
  GI50: 1.79 µM
  TGI: 3.29 µM
[10]
  GI50: 1.78 µM
  TGI: 3.3 µM

## COc1ccccc1/C=C/C(=O)c1ccccc1
[1]
  GI50: 13.1 µM
  TGI: 27 µM
[2]
  GI50: 4.11 µM
  TGI: 17.4 µM
[3]
  GI50: 13.8 µM
  TGI: 27.4 µM
[4]
  GI50: 2.66 µM
  TGI: 7.08 µM
[5]
  GI50: 4.04 µM
  TGI: 14.3 µM
[6]
  GI50: 3.5 µM
  TGI: 12.8 µM
[7]
  GI50: 5.94 µM
  TGI: 16.1 µM
[8]
  GI50: 13.1 µM
  TGI: 27.1 µM
[9]
  GI50: 16.3 µM
  TGI: 31 µM
[10]
  GI50: 17 µM
  TGI: 31.8 µM

## Cc1[nH]nc(C(=O)n2nc(N)c3ccccc32)c1[N+](=O)[O-]
[1]
  GI50: > 100 µM
  TGI: > 100 µM
[2]
  GI50: > 100 µM
  TGI: > 100 µM
[3]
  GI50: > 100 µM
  TGI: > 100 µM
[4]
  GI50: > 100 µM
  TGI: > 100 µM
[5]
  GI50: > 100 µM
  TGI: > 100 µM
[6]
  GI50: > 100 µM
  TGI: > 100 µM
[7]
  GI50: > 100 µM
  TGI: > 100 µM
[8]
  GI50: 26.9 µM
  TGI: > 88.9 µM
[9]
  GI50: > 100 µM
  TGI: > 100 µM
[10]
  GI50: > 100 µM
  TGI: > 100 µM

## COc1ccc2[nH]c(O)c(C(=Nc3ccc(N(C)C(=O)CN4CCN(C)CC4)cc3)c3ccccc3)c2c1
[1]
  GI50: 2.1 µM
  TGI: 7.55 µM
[2]
  GI50: 2.52 µM
  TGI: 8.96 µM
[3]
  GI50: 1.73 µM
  TGI: 4.08 µM
[4]
  GI50: 1.78 µM
  TGI: 11.4 µM
[5]
  GI50: 0.0197 µM
  TGI: 10.5 µM
[6]
  GI50: 0.562 µM
  TGI: 8.37 µM
[7]
  GI50: 1.04 µM
  TGI: 2.36 µM
[8]
  GI50: 1.07 µM
  TGI: 2.64 µM
[9]
  GI50: 1.64 µM
  TGI: 3.45 µM
[10]
  GI50: 2.47 µM
  TGI: 8.59 µM

## CCOc1cc(/C=N\Nc2nnc(C)n2N)c(C)cc1N(CCCl)CCCl
[1]
  GI50: 1.97 µM
  TGI: > 92.6 µM
[2]
  GI50: 0.461 µM
  TGI: 5.8 µM
[3]
  GI50: 0.396 µM
  TGI: 3.6 µM
[4]
  GI50: 0.663 µM
  TGI: > 57.3 µM
[5]
  GI50: 0.897 µM
  TGI: 19.9 µM
[6]
  GI50: 0.56 µM
  TGI: 13.2 µM
[7]
  GI50: 1.2 µM
  TGI: 17.7 µM
[8]
  GI50: 0.692 µM
  TGI: 6.5 µM
[9]
  GI50: 0.212 µM
  TGI: 2.41 µM
[10]
  GI50: 1.45 µM
  TGI: 16 µM

## Nc1ccccc1C#C/C=C\C#Cc1ccccc1[N+](=O)[O-]
[1]
  GI50: 6.38 µM
  TGI: 27.7 µM
[2]
  GI50: 7.25 µM
  TGI: 39.8 µM
[3]
  GI50: 4.98 µM
  TGI: 20 µM
[4]
  GI50: 0.942 µM
  TGI: 88.8 µM
[5]
  GI50: 3.19 µM
  TGI: 70.6 µM
[6]
  GI50: 4.31 µM
  TGI: 36 µM
[7]
  GI50: 2.07 µM
  TGI: 9.06 µM
[8]
  GI50: 13.3 µM
  TGI: 58.3 µM
[9]
  GI50: 25.4 µM
  TGI: 69.7 µM
[10]
  GI50: 12 µM
  TGI: 43.6 µM
